Like-named read-outs stand apart in the source and are kept apart here.

Test [1] relates to IRF3 activation in PD-L1 low HEK293T STING reporter cell line. The experiment in a line: IRF3 activation in HEK293T STING reporter cells, low PD-L1. In kind it is cell-based, human. The conditions noted are these: 20 hours, read-out: IRF Activation EC50 (nM), Low PD-L1. Here is the method:
(§1) HEK293T STING reporter cell line was purchased from Invivogen and expressed low level of PD-L1. This cell line was then engineered at Incyte Research Institute to overexpress human PD-L1. Both PD-L1 high and PD-L1 low HEK293T cell lines were plated at 100,000 cells/100 μL/well in 10% fetal calf serum-containing DMEM culture medium in a 96-well flat bottom plate. Serial dilutions of PD-L1 small molecule-conjugated STING agonists were then added to the corresponding wells, and incubated for 20 hours at 37° C. In a competition study setting, 1 μM of a PD-L1 small molecule was added in the corresponding wells to compete with the binding of PD-L1 small molecule-conjugated STING agonists. At the end of the incubation, the culture supernatants were carefully removed from each well, and the amount of IRF3 activation was determined by adding Quanti-Blue substrate in accordance with the manufacturer's protocol.
(§2) 293T-Dual hSTING-R232 (ISG/KI-IFNb) cells that were generated from 293T-Dual Null (ISG/KI-IFNb) cells by stable transfection of the R232 isoform of human STING were purchased from Invivogen (Invivogen #293d-r232).
(§3) This cell line expresses an ISRE-inducible SEAP (secreted embryonic alkaline phosphatase) reporter construct, which monitors the activation of interferon regulatory factor (IRF) and its binding to ISRE (IFN-stimulated response elements). These reporter cells express low level of PD-L1. Human PD-L1 was then overexpressed in these cells through stable transfection.
(§4) These 293T-Dual hSTING-R232 reporter cells as well as293T-Dual hSTING-R232 reporter cells overexpressing huPD-L1 were treated with various concentrations of STING compounds for 20 hours. After 20 hours, interferon regulatory factor (IRF) activity was assessed by measuring SEAP levels in the supernatant using QUNTI-Blue. EC50 values were generated by curve fit in Prism software.

For test [2], the target named is T1, PD-L1 (Homo sapiens (Human), UniProt Q9NZQ7). The experiment in a line: PD-L1 surface levels on HEK293T STING reporter cells, low PD-L1. The test is classed as cell-based. The protocol:
(§5) To determine PD-L1 expression on HEK cells after treatment of PD-L1-small molecule conjugated STING agonists, cells were harvested at 20 hours post-treatment. Single cell suspensions were then stained with phycoerythrin-conjugated anti-PD-L1 antibody (BD Bioscience), and the PD-L1 expression were then analyzed by flow cytometry. Mean fluorescence intensity was used as the relative level of surface PD-L1 expression on cells (FIG. 1 and Table 6).
(§6) Also, cells were stained with PE-conjugated anti-human PD-L1 antibody to determine surface PD-L1 expression. Cell acquisition was performed on BD LSRFortessa X-20 (BD Biosciences). Data was analyzed using FlowJo software. IC50 values were calculated using Prism Software.

Test [3] addresses T1, PD-L1. The experiment in a line: PD-L1 surface levels on HEK293T STING reporter cells, high PD-L1. In kind it is cell-based. The protocol:
as §5, §6

Test [4] deals with IRF3 activation in PD-L1 high HEK293T STING reporter cell line. The test is described as follows: IRF3 activation in HEK293T STING reporter cells, high PD-L1. The test is classed as cell-based, human. The conditions noted are these: for EC50: 20 hours; for Potency shift: with compound P27 (1 μM) versus no competition. Here is the method: as §1, §2, §3, §4
Test [5] deals with IFNβ production in CD11b+ monocytes. The experiment in a line: IFN-beta induction in CD11b+ monocytes from lung cancer pleural effusions. Conditions: CD11b+ monocyte cultures, lung cancer pleural effusion, 20 hours, read-out: EC50 for IFNβ induction, Cancer patient. The test is classed as cell-based, human. Here is the method: (§7) CD11b^+ cells were isolated from healthy PBMCs as well as Pleural effusion samples using Miltenyi isolation kit according to manufacturer's protocol. Cells were seeded in 96 well plates at the density of 300,000 cells/wells, and then treated with various concentrations of compounds for 20 hours. After 20 hours, IFN-beta secretion levels were evaluated in the culture supernatants by MSD singleplex assay. EC50 values were calculated using Prism software.
(§8) Different naked STING agonisst and PD-L1-targeted small molecule-STING agonist conjugates were added to CD11b^+ monocytes cultures isolated from healthy donor blood or lung cancer patients' pleural effusions. Culture supernatants were collected 20 hours later and IFNβ production were determined using MSD singleplex assay.

For test [6] the test system is unchanged. The experiment in a line: IFN-beta induction in CD11b+ monocytes from healthy donor PBMC. The test is classed as cell-based, human. The conditions noted are these: CD11b+ monocyte cultures, 20 hours, mean ± SEM. The protocol: as §7, §8
In test [7] the target is T1, PD-L1. The experiment in a line: Direct method for PD-L1 internalization in CHO-PD-L1 cells. The test is classed as cell-based. The conditions noted are these: 40 nM pHrodo-labelled antibody, 5 to 16 hours, versus IgG control. Here is the method: Endocytosis or internalization of PD-L1 was measured by two different methods, one direct and the other indirect. In the direct method, an anti PD-L1 antibody labeled with a pH sensitive fluorophore is incubated with PD-L1 expressing cells. Upon internalization and trafficking of the antibody-PD-L1 complex to low pH endosomes, fluorescence is emitted. In the indirect method, cell surface PD-L1 is measured using an anti PD-L1 antibody after incubation with a compound to determine remaining, non-internalized receptor.
For the direct measurement, biotinylated anti-PD-L1 antibody (BPS Biosciences) or Atezolizumab, biotinylated with a 20-fold excess of biotin using the EZ-Link™ Sulfo-NHS-LC-Biotin reagents (ThermoFisher), were labeled with pHrodo™ Red Avidin (Life Technologies) conjugate. Equimolar solutions of the antibody and pHrodo™ Red avidin (4.2 uM each) were incubated on ice for 2 hours in the dark in a buffer composed of 40 mM Tris-HCl, pH 8.0, 110 mM NaCl, 2.2 mM KCl, 20% glycerol, and 1% bovine serum albumin The mixture was centrifuged for 1 minute at 1000 rpm, and the clarified supernatant was used in subsequent assays. […] The cells were analyzed by flow cytometry, and internalized antibody-receptor complex was detected using a C6 Accuri Flow Cytometer (excitation with […] and emission collected with a 585/40 bandpass filter).

The test system of another test is IRF3. The test is described as follows: IRF3 activation assay in THP-1 Dual cells. The test is classed as cell-based. Conditions: Homo sapiens, THP-1, Table 4C; read-out: THP1 IRF3 EC50. The essentials:
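THP-1 Dual cells (100,000/well) were treated with serially diluted compound for 24 h at 37° C, 5% CO2. IRF3 reporter activity in supernatant was read with QUANTI-Blue as absorbance at 620-655 nm after 2 h, with untreated cells as negative control. EC50 came from fitting percent control activity against log concentration.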

[8] abbreviates: high PD-L1 cells, read-out: IRF Activation EC50 (nM), High PD-L1.
[9] abbreviates: no competition, read-out: IRF Activation EC50 (nM), No competition.
Setting [10] is: read-out: IRF Activation EC50 (nM), With compound P27 (1 μM), competition with compound P27 1 μM.

T1 sequence (Q9NZQ7 19-290): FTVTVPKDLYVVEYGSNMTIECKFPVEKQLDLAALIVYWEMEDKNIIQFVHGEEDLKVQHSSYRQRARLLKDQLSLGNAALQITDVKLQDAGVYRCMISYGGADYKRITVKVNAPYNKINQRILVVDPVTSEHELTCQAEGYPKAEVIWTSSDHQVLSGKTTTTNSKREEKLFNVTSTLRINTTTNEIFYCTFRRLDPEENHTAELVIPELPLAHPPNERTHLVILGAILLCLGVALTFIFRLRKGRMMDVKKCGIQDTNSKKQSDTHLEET

What is called EC50 is the concentration needed to bring the measured effect to its halfway point. As usually defined, the IC50 is the concentration at which inhibition is half-maximal. On to `CCn1nc(C)cc1C(=O)Nc1nc2cc(C(N)=O)cc(OC)c2n1C/C=C/Cn1c(NC(=O)c2cc(C)nn2CC)nc2cc(C(N)=O)cc(OCCCNC(=O)CCNC(=O)OCCSSC[C@H](NC(=O)[C@H](CC(=O)O)NC(=O)[C@H](CC(=O)O)NC(=O)[C@H](CCCNC(=N)N)NC(=O)[C@H](CC(=O)O)NC(=O)CCCN3CCc4c(nc(C(=O)Nc5cccc(-c6cccc(NC(=O)c7nc8c(n7C)CCN(CCCC(=O)O)C8)c6Cl)c5Cl)n4C)C3)C(=O)O)c21` [Example 5], for which the concentration for a half-maximal effect (EC50) in test [1] was 200 to 1000 nM; in test [4] (setting [8]), less than 50 nM; in test [4] (setting [9]), less than 50 nM; in test [4] (setting [10]) it was 200 to 1000 nM. The IC50 at PD-L1 [2] was more than 1000 nM; at PD-L1 [3] it was less than 50 nM. Also, in test [4], the Potency shift is reported as more than 20.

For `CCn1nc(C)cc1C(=O)Nc1nc2cc(C(N)=O)cc(OC)c2n1C/C=C/Cn1c(NC(=O)c2cc(C)nn2CC)nc2cc(C(N)=O)cc(OCCCNC(=O)CCNC(=O)OCc3ccc(NC(=O)[C@H](CCCNC(N)=O)NC(=O)[C@@H](NC(=O)CCCN4CCc5c(nc(C(=O)Nc6cccc(-c7cccc(NC(=O)c8nc9c(n8C)CCN(CCCC(=O)O)C9)c7Cl)c6Cl)n5C)C4)C(C)C)cc3)c21` [Example 2], the EC50 in test [1] was 50 to 200 nM; in test [4] (setting [8]) it was less than 50 nM; in test [4] (setting [9]), less than 50 nM; in test [4] (setting [10]), 50 to 200 nM. Moreover, the IC50 on PD-L1 [2] was more than 1000 nM; at PD-L1 [3], less than 50 nM. In test [4], the Potency shift was more than 20.

As to `CCn1nc(C)cc1C(=O)Nc1nc2cc(C(N)=O)cc(OCCCNC(=O)[C@H](CC(=O)O)NC(=O)[C@H](CC(=O)O)NC(=O)[C@H](CCCNC(=N)N)NC(=O)[C@H](CC(=O)O)NC(=O)CCCN3CCc4c(nc(C(=O)Nc5cccc(-c6cccc(NC(=O)c7nc8c(n7C)CCN(CCCC(=O)O)C8)c6Cl)c5Cl)n4C)C3)c2n1C/C=C/Cn1c2nc(-c3cc(C)nn3CC)ncc2c2cc(C(N)=O)cc(OC)c21` [Example 7], the EC50 in test [1] is 50 to 200 nM; in test [5], 643 nM; in test [6], 2010 ± 308 nM; in test [4] (setting [8]), less than 50 nM. Also, the IC50 at PD-L1 [3] was less than 50 nM.

Consider `CCn1nc(C)cc1C(=O)Nc1nc2cc(C(N)=O)cc(OC)c2n1C/C=C/Cn1c(NC(=O)c2cc(C)nn2CC)nc2cc(C(N)=O)cc(OCCCNC(=O)[C@H](CC(=O)O)NC(=O)[C@H](CC(=O)O)NC(=O)[C@H](CCCNC(=N)N)NC(=O)[C@H](CC(=O)O)NC(=O)CCCN3CCc4c(nc(C(=O)Nc5cccc(-c6cccc(NC(=O)c7nc8c(n7C)CCN(CCCC(=O)O)C8)c6Cl)c5Cl)n4C)C3)c21` [Example 1], for which the EC50 in test [1] was 200 to 1000 nM; in test [5], 406 nM; in test [6], 5030 ± 1260 nM; in test [4] (setting [8]), less than 50 nM; in test [4] (setting [9]) it was less than 50 nM; in test [4] (setting [10]), 200 to 1000 nM. The IC50 at PD-L1 [2] is more than 1000 nM; on PD-L1 [3], less than 50 nM. The Potency shift in test [4] is reported as more than 100.

In the case of Atezolizumab, in the test with PD-L1 [7], the “PD-L1 internalization (direct method)” value is recorded as “dos not cause PD-L1 internalization”.

As for `CCn1nc(C)cc1C(=O)Nc1nc2cc(C(N)=O)cc(OCCCOC(=O)NCCC(=O)O)c2n1C/C=C/Cn1c2nc(-c3cc(C)nn3CC)ncc2c2cc(C(N)=O)cc(OCCCOC)c21` [Example S48, (E)-3-(((3-((5-carbamoyl-1-(4-(6-carbamoyl-2-(1-ethyl-3-methyl-1H-pyrazol-5-yl)-8-(3-methoxypropoxy)-9H-pyrimido[4,5-b]indol-9-yl)but-2-en-1-yl)-2-(1-ethyl-3-methyl-1H-pyrazole-5-carboxamido)-1H-benzo[d]imidazol-7-yl)oxy)propoxy)carbonyl)amino)propanoic acid], the EC50 was not above 50 nM in the test on IRF3, 38 nM in test [5] (Homo sapiens) and 64 ± 12 nM in test [6] (Homo sapiens).

These data come from patent US11596692B1 (Incyte Corporation, priority 2018, dated 2023).
